Reference: US20250009891A1, “CONJUGATES OF MONOCYCLIC BETA-LACTAMS AND SIDEROPHORE MIMETICS” (UNIVERSITY OF NOTRE DAME DU LAC, priority 2021, published 2025)
Converted amounts (≈) assume the structure as drawn. Read-outs that look alike come from different tables or passages of the source.

What was measured:
[1] = test system: B. dolosa AU0018; test: In vitro antibacterial assay (MIC); assay type: cell-based
Method: (§1) Antibacterial assay results of new aztreonam derivatives (27, 30, 32 and 37), aztreonam (9a) and earlier data of conjugate 23 are shown in Table 1. The assays were performed using iron deficient media appropriate for screening siderophore conjugates as described previously. […] As expected, none of the compounds were active against the Gram-positive S. aureus. […] Of special interest is the significant inhibitory activity against problematic strains of A. baumannii and P. aeruginosa, including cephalosporinase and carbapenemase producers (A. baumannii TCC 17978 pNT320 and ATCC 17978 pNT165, respectively) which are on the World Health Organization (WHO) list of multi-drug resistant (MDR) pathogens of greatest concern.

[2] = test system: E. aerogenes X816; test: In vitro antibacterial assay (MIC); assay type: cell-based; details: iron deficient media, duplicate assays
Method: as §1

[3] = test system: K. pneumoniae ATCC 8303 X68; test: In vitro antibacterial assay (MIC); assay type: cell-based; details: duplicate assays
Method: as §1

[4] = test system: S. aureus SG511; test: In vitro antibacterial assay (MIC); assay type: cell-based; details: iron deficient media, duplicate assays
Method: as §1

[5] = test system: A. baumannii ATCC 17978 pNT320 (cephalosporinase producing strain); test: In vitro antibacterial assay (MIC); assay type: cell-based, Acinetobacter baumannii; details: iron deficient media, duplicate assays
Method: as §1

[6] = test system: A. baumannii ATCC 17961; test: In vitro antibacterial assay (MIC); assay type: cell-based, Acinetobacter baumannii; details: duplicate assays
Method: as §1

[7] = test system: A. baumannii ATCC 17978 pNT165 (carbapenemase producing strain); test: In vitro antibacterial assay (MIC); assay type: cell-based, Acinetobacter baumannii; details: iron deficient media, duplicate assays
Method: as §1

[8] = test system: A. baumannii ATCC BAA 1797; test: In vitro antibacterial assay (MIC); assay type: cell-based, Acinetobacter baumannii; details: duplicate assays
Method: as §1

[9] = test system: P. aeruginosa KW799/wt; test: In vitro antibacterial assay (MIC); assay type: cell-based, Pseudomonas aeruginosa; details: iron deficient media, duplicate assays
Method: as §1

[10] = test system: P. aeruginosa ARC 3502; test: In vitro antibacterial assay (MIC); assay type: cell-based, Pseudomonas aeruginosa; details: iron deficient media, duplicate assays
Method: as §1

[11] = test system: P. aeruginosa ISR14-004; test: In vitro antibacterial assay (MIC); assay type: cell-based, Pseudomonas aeruginosa; details: iron deficient media, duplicate assays
Method: as §1

[12] = test system: Gram-negative bacteria; details: in words, cited from earlier work
[13] = test system: C. freundii ATCC 19063; test: In vitro antibacterial assay (MIC); assay type: cell-based; details: iron deficient media, duplicate assays
Method: as §1

[14] = test system: P. mirabilis X235; test: In vitro antibacterial assay (MIC); assay type: cell-based; details: iron deficient media, duplicate assays
Method: as §1

[15] = test system: Gram-negative bacteria; test: Antibacterial activity, summary statements; assay type: cell-based; details: in words; for activity against Gram-negative bacteria that are resistant to aztreonam: iron deficient media
Method: as §1

[16] = test system: P. aeruginosa 01; test: In vitro antibacterial assay (MIC); assay type: cell-based, Pseudomonas aeruginosa; details: iron deficient media, duplicate assays
Method: as §1

[17] = test system: P. aeruginosa ISR14-003; test: In vitro antibacterial assay (MIC); assay type: cell-based, Pseudomonas aeruginosa; details: iron deficient media, duplicate assays
Method: as §1

[18] = test system: E. coli DCO; test: In vitro antibacterial assay (MIC); assay type: cell-based, Escherichia coli; details: iron deficient media, duplicate assays
Method: as §1

[19] = Klebsiella aerogenes, X816, E. aerogenes X816
[20] = Klebsiella pneumoniae, ATCC8303, iron deficient media
[21] = Acinetobacter baumannii, ATCC17978, A. baumannii ATCC 17978 pNT320, cephalosporinase producing
[22] = Acinetobacter baumannii, ATCC17961, iron deficient media
[23] = Acinetobacter baumannii, ATCC17978, A. baumannii ATCC 17978 pNT165, carbapenemase producing
[24] = Acinetobacter baumannii, BAA1797, iron deficient media
[25] = Pseudomonas aeruginosa, ARC3502, P. aeruginosa ARC 3502, read-out: MIC
[26] = P. aeruginosa ISR14-004, read-out: MIC
[27] = Citrobacter freundii, ATCC19063, C. freundii ATCC 19063
[28] = Proteus mirabilis, X235, P. mirabilis X235
[29] = A. baumannii ATCC 17978 pNT320, cephalosporinase producing
[30] = Pseudomonas aeruginosa, ISR14004, P. aeruginosa ISR14-004, read-out: MIC
[31] = Pseudomonas aeruginosa, 01, P. aeruginosa 01
[32] = Pseudomonas aeruginosa, ISR14003, P. aeruginosa ISR14-003, read-out: MIC
[33] = Pseudomonas aeruginosa, KW799/WT

Row | Structure (SMILES) | MIC ([2]; E. aerogenes X816) | MIC [2, 19] | MIC [3, 20] | MIC ([4]; Staphylococcus aureus) | MIC [5, 21] | MIC [6, 22] | MIC [7, 23] | MIC [8, 24] | MIC [9] | MIC [10, 25] | MIC [11, 26] | MIC ([1]; Burkholderia dolosa, AU0018) | MIC [13, 27] | MIC [14, 28] | MIC [5, 29] | activity compared to bis-catechol conjugate 23 [15] | activity against Gram-negative bacteria that are resistant to aztreonam [15] | MIC [16, 31] | MIC [17, 32] | MIC ([18]; Escherichia coli) | also measured
1 | C[C@H]1[C@H](NC(=O)/C(=N\OC(C)(C)C(=O)O)c2csc(N)n2)C(=O)N1S(=O)(=O)O [Aztreonam 9a, aztreonam, reference compound] | 0.8 µM (≈ 0.348 µg/mL) | 1.6 µM (≈ 0.697 µg/mL) | 0.2 µM (≈ 0.0871 µg/mL) | > 25 µM | > 25 µM | > 25 µM | > 25 µM | > 25 µM | 3 µM (≈ 1.31 µg/mL) | > 25 µM | 6 µM (≈ 2.61 µg/mL) | – | – | – | – | – | – | – | – | – | MIC ([1]; Burkholderia dolosa, B. dolosa AU0018, iron deficient media, duplicate assays, read-out: MIC): > 25 µM; activity against problematic Gram-negative bacteria ([12]; including carbapenemase and cephalosporinase producing strains of P. aeruginosa and A. baumannii): not active
2 | CC1(C)[C@H](NC(=O)/C(=N\OCc2cc(=O)c(O)cn2O)c2csc(N)n2)C(=O)N1OS(=O)(=O)O [BAL 30072] | – | – | – | – | – | – | – | – | – | – | – | – | – | – | – | – | – | – | – | – | in vitro activity ([12]; compounds without free carboxylic acids): retained potent in vitro activity
3 | C[C@H]1[C@H](NC(=O)/C(=N\OC(C)(C)C(=O)NCCNC(=O)CN(CCCCNC(=O)c2cccc(O)c2O)C(=O)c2cccc(O)c2O)c2csc(N)n2)C(=O)N1S(=O)(=O)O [Compound 27, (2S,3S)-3-((Z)-18-(2-Aminothiazol-4-yl)-7-(2,3-dihydroxybenzoyl)-1-(2,3-dihydroxy-phenyl)-15,15-dimethyl-1,9,14-trioxo-16-oxa-2,7,10,13,17-pentaazanonadec-17-en-19-amido)-2-methyl-4-oxoazetidine-1-sulfonic acid] | – | 0.05 µM (≈ 0.0439 µg/mL) | 0.05 µM (≈ 0.0439 µg/mL) | > 25 µM | 1.6 µM (≈ 1.4 µg/mL) | 0.8 µM (≈ 0.702 µg/mL) | 6 µM (≈ 5.27 µg/mL) | 3 µM (≈ 2.63 µg/mL) | – | 0.8 µM (≈ 0.702 µg/mL) | 0.2 µM (≈ 0.176 µg/mL) | > 25 µM | 0.4 µM (≈ 0.351 µg/mL) | < 0.013 µM | 0.8 µM (≈ 0.702 µg/mL) | comparable to or better than | notably and unexpectedly active | 0.8 µM (≈ 0.702 µg/mL) | 0.8 µM (≈ 0.702 µg/mL) | 0.025 µM (≈ 0.0219 µg/mL) | MIC ([7]; A. baumannii ATCC 17978 pNT165, carbapenemase producing): 6.25 µM (≈ 5.49 µg/mL); MIC ([10]; P. aeruginosa ARC 3502, read-out: MIC): 1.6 µM (≈ 1.4 µg/mL); MIC [11, 30]: 0.4 µM (≈ 0.351 µg/mL); MIC ([16]; P. aeruginosa 01): 0.6 µM (≈ 0.527 µg/mL); MIC ([17]; P. aeruginosa ISR14-003, read-out: MIC): 0.4 µM (≈ 0.351 µg/mL)
4 | C[C@H]1[C@H](NC(=O)/C(=N\OC(C)(C)C(=O)NOCC(=O)NCCNC(=O)CN(CCCCNC(=O)c2cccc(O)c2O)C(=O)c2cccc(O)c2O)c2csc(N)n2)C(=O)N1S(=O)(=O)O [Compound 30, (2S,3S)-3-((Z)-22-(2-Aminothiazol-4-yl)-7-(2,3-dihydroxybenzoyl)-1-(2,3-dihydroxyphenyl)-19,19-dimethyl-1,9,14,18-tetraoxo-16,20-dioxa-2,7,10,13,17,21-hexaazatricos-21-en-23-amido)-2-methyl-4-oxoazetidine-1-sulfonic acid] | – | 0.05 µM (≈ 0.0475 µg/mL) | 0.05 µM (≈ 0.0475 µg/mL) | > 25 µM | 3 µM (≈ 2.85 µg/mL) | 0.8 µM (≈ 0.761 µg/mL) | – | 1.6 µM (≈ 1.52 µg/mL) | 0.4 µM (≈ 0.38 µg/mL) | – | – | > 25 µM | 0.4 µM (≈ 0.38 µg/mL) | < 0.013 µM | 1.6 µM (≈ 1.52 µg/mL) | comparable to or better than | notably and unexpectedly active | 0.8 µM (≈ 0.761 µg/mL) | 0.8 µM (≈ 0.761 µg/mL) | 0.025 µM (≈ 0.0238 µg/mL) | MIC [9, 33]: 0.8 µM (≈ 0.761 µg/mL); MIC ([16]; P. aeruginosa 01): 0.4 µM (≈ 0.38 µg/mL)
5 | CCN(C(C)C)C(C)C.C[C@H]1[C@H](NC(=O)/C(=N\OC(C)(C)C(=O)NOCC(=O)O)c2csc(N)n2)C(=O)N1S(=O)(=O)O [Compound 32, (Z)-2-(2-Aminothiazol-4-yl)-5,5-dimethyl-1-(((2S,3S)-2-methyl-4-oxo-1-sulfoazetidin-3-yl)amino)-1,6-dioxo-4,8-dioxa-3,7-diazadec-2-en-10-oic acid DIPEA salt] | 3 µM | – | – | – | – | – | – | – | 25 µM | – | – | – | – | – | >25 µM | – | – | – | – | – | MIC ([1]; B. dolosa AU0018, iron deficient media, duplicate assays): >25/(>25) μM; MIC ([13]; C. freundii ATCC 19063): 3 µM; MIC ([3]; iron deficient media): 0.8 µM; MIC ([14]; P. mirabilis X235): 0.05 µM; MIC [4]: >25 µM; MIC ([6]; iron deficient media): >25 µM; MIC ([8]; iron deficient media): >25 µM; activity compared to aztreonam (9a) [15]: activity comparable to that of aztreonam; MIC ([10]; P. aeruginosa ARC 3502): >25/(>25) μM; MIC ([11]; P. aeruginosa ISR14-004): >25/(25) μM; MIC ([17]; P. aeruginosa ISR14-003): >25/(>25) μM; MIC [18]: 1.6 µM
6 | C[C@H]1[C@H](NC(=O)/C(=N\OC(C)(C)C(=O)NCCNC(=O)CN(CCCCNC(=O)c2ccc(O)c(O)c2Cl)C(=O)c2ccc(O)c(O)c2Cl)c2csc(N)n2)C(=O)N1S(=O)(=O)O [Compound 37] | – | 0.8 µM (≈ 0.757 µg/mL) | 0.2 µM (≈ 0.189 µg/mL) | – | 0.4 µM (≈ 0.379 µg/mL) | 0.8 µM (≈ 0.757 µg/mL) | 25 µM (≈ 23.7 µg/mL) | 0.8 µM (≈ 0.757 µg/mL) | – | 4.5 µM (≈ 4.26 µg/mL) | – | – | < 0.025 µM | < 0.025 µM | – | comparable to or better than | notably and unexpectedly active | 1.2 µM (≈ 1.14 µg/mL) | 0.4 µM (≈ 0.379 µg/mL) | 0.4 µM (≈ 0.379 µg/mL) | MIC [9, 33]: 0.2 µM (≈ 0.189 µg/mL); MIC [11, 30]: 0.2 µM (≈ 0.189 µg/mL)
